These molecules were tested on Onchocerca gutturosa adult male worms (assay: Onchocerciasis in vitro screening model Onchocerca gutturosa (worm motility score and MTT/formazan colorimetry)). Details: Onchocerca gutturosa, read-out: O. gutt Act class.
Description: Onchocerciasis: In Vitro Screening Model Onchocerca gutturosa
Parasite and cell cultures. Onchocerca gutturosa adult male worms were obtained by dissection from the nuchal ligament connective tissues of naturally infected cattle, from Gambia, W Africa.
The worms were maintained for at least 24 h in culture before use in Eagles Minimum Essential Medium with Earl's Salts (Gibco, UK)+10% heat inactivated new born calf serum (Gibco, UK)+antibiotic cover of 200 units/ml penicillin, 200 μg/ml streptomycin and 0.5 μg/ml amphotericin B (Sigma, UK). Only normally active specimens were used in the test. All cultures and assays were conducted at 37° C. under an atmosphere of 5% CO2 in air.
Drug sensitivity assays. Compound stock solutions were prepared in 100% DMSO unless otherwise indicated and diluted into the medium. Any unused compound stocks were stored at −20° C. Assays were performed in sterile 24-well (2 ml) plates (Falcon, UK).
Worms were then transferred individually to each well of the plate using fine forceps. Worm viability was assessed using 2 parameters: • The measurement of mean worm motility scores on a scale of 0 (immotile) to 10 (maximum) every 24 h, terminating at 120 h, using an Olympus inverted microscope. • The biochemical evaluation of worm viability using MTT/formazan colorimetry. The MTT assay was carried out after the last motility reading (120 h). Single intact worms were placed in each well of a 48-well plate (Falcon, UK) containing 0.5 ml of a solution consisting of 0.5 mg/ml MTT (Sigma UK) in phosphate buffered saline, and then incubated for 30 min at 37° C. The worms were removed, blotted carefully, and individually transferred to separate wells of a 96-well microtiter plate, each containing 200 μl of DMSO to solubilize the formazan. After 1 h the plate was gently agitated to disperse the color evenly and the absorbance value (optical density) of the resulting formazan solution was determined at 490 nm using a multi-well scanning spectrophotometer (Elisa-reader, Dynatech, UK). Inhibition of formazan formation was correlated with worm damage or death.
Primary screen. New compounds were usually tested at 1.25×10^−5 M. Also expressed in μg/ml.
Secondary screen. […] Serial 1 in 4 drug dilutions was carried out to find activity endpoint and EC50 values for motility reduction and inhibition of formazan formation were produced. EC50 values were determined using Excel or Origin V7 scientific graphing and data analysis software.

| Compound | IC50 [nM] |
| --- | --- |
| Cc1ccc(-c2csc(Nc3cc(C)ccn3)n2)nc1 [Example 1, N-(4-Methylpyridin-2-yl)-4-(5-methylpyridin-2-yl)thiazol-2-amine] | < 200 |
| Cc1ccnc(Nc2nc(-c3cccc(C)n3)cs2)c1 [Example 2] | 200 to 500 |
| COc1cccnc1-c1csc(Nc2cc(C)ccn2)n1 [Example 7] | 500 to 5000 |
| CCOc1cccc(-c2csc(Nc3ncccc3C)n2)n1 [Example 71] | 500 to 5000 |
| CCOc1cccnc1-c1csc(Nc2cc(C)ccn2)n1 [Example 72, 4-(3-ethoxypyridin-2-yl)-N-(4-methylpyridin-2-yl)thiazol-2-amine] | < 200 |
| CC(=O)N(C)c1cc(C(F)(F)F)cnc1Nc1nc(-c2cc(OC3COC3)ccn2)cs1 [Example 73, N-methyl-N-(2-(4-(4-(oxetan-3-yloxy)pyridin-2-yl)thiazol-2-ylamino)-5-(trifluoromethyl)pyridin-3-yl)acetamide] | 200 to 500 |
| CCOc1cnc(-c2csc(Nc3cc(C)ccn3)n2)c(C)c1 [Example 74, 4-(5-ethoxy-3-methylpyridin-2-yl)-N-(4-methylpyridin-2-yl)thiazol-2-amine] | < 200 |
| CCOc1cnc(-c2csc(Nc3ncccc3C)n2)c(C)c1 [Example 75, 4-(5-ethoxy-3-methylpyridin-2-yl)-N-(3-methylpyridin-2-yl)thiazol-2-amine] | < 200 |
| CC(=O)N(C)c1cc(C(F)(F)F)cnc1Nc1nc(-c2cc3c(cn2)N(C)CC3)cs1 [Example 76, N-methyl-N-(2-(4-(1-methyl-2,3-dihydro-1H-pyrrolo[2,3-c]pyridin-5-yl)thiazol-2-ylamino)-5-(trifluoromethyl)pyridin-3-yl)acetamide] | < 200 |
| CCOc1cccnc1-c1csc(Nc2ncccc2C)n1 [Example 77, 4-(3-ethoxypyridin-2-yl)-N-(3-methylpyridin-2-yl)thiazol-2-amine] | < 200 |
| CCOc1cccc(-c2csc(Nc3cc(C)ccn3)n2)n1 [Example 78, 4-(6-ethoxypyridin-2-yl)-N-(4-methylpyridin-2-yl)thiazol-2-amine] | 500 to 5000 |
| CCOc1ccc(-c2csc(Nc3ncc(F)cc3C)n2)nc1 [Example 79, 4-(5-ethoxypyridin-2-yl)-N-(5-fluoro-3-methylpyridin-2-yl)thiazol-2-amine] | < 200 |
| CSc1ccc(-c2csc(Nc3ncccc3C)n2)nc1 [Example 80, N-(3-methylpyridin-2-yl)-4-(5-(methylthio)pyridin-2-yl)thiazol-2-amine] | < 200 |
| CCOc1ccc(-c2csc(Nc3ccc(C)cn3)n2)nc1 [Example 81, 4-(5-ethoxypyridin-2-yl)-N-(5-methylpyridin-2-yl)thiazol-2-amine] | < 200 |
| CC(=O)N(C)c1cc(C(F)(F)F)cnc1Nc1nc(-c2cc(OC(C)C)ccn2)cs1 [Example 82, N-(2-(4-(4-isopropoxypyridin-2-yl)thiazol-2-ylamino)-5-(trifluoromethyl)pyridin-3-yl)-N-methylacetamide] | < 200 |
| CCOc1ccc(-c2csc(Nc3ncccc3C3CC3)n2)nc1 [Example 83, N-(3-cyclopropylpyridin-2-yl)-4-(5-ethoxypyridin-2-yl)thiazol-2-amine] | 200 to 500 |
| CCOc1ccc(-c2csc(Nc3ncc(C(F)(F)F)cc3C)n2)nc1 [Example 84, 4-(5-ethoxypyridin-2-yl)-N-(3-methyl-5-(trifluoromethyl)pyridin-2-yl)thiazol-2-amine] | 200 to 500 |
| CCOc1ccc(-c2csc(Nc3ccc(Cl)cn3)n2)nc1 [Example 85, N-(5-chloropyridin-2-yl)-4-(5-ethoxypyridin-2-yl)thiazol-2-amine] | 200 to 500 |
| CCOc1ccc(-c2csc(Nc3nc(C)ccc3C)n2)nc1 [Example 86, N-(3,6-dimethylpyridin-2-yl)-4-(5-ethoxypyridin-2-yl)thiazol-2-amine] | < 200 |
| CCOc1ccc(Nc2nc(-c3ccc(OCC)cn3)cs2)nc1 [Example 87, N,4-bis(5-ethoxypyridin-2-yl)thiazol-2-amine] | < 200 |
| CCOc1ccc(-c2csc(Nc3ncc(C)cc3C)n2)nc1 [Example 88, N-(3,5-dimethylpyridin-2-yl)-4-(5-ethoxypyridin-2-yl)thiazol-2-amine] | < 200 |
| Cc1ccnc(Nc2nc(-c3ccc(Cl)cn3)cs2)c1 [Example 89, 4-(5-chloropyridin-2-yl)-N-(4-methylpyridin-2-yl)thiazol-2-amine] | 200 to 500 |
| CCOc1ccc(-c2csc(Nc3cccc(C)n3)n2)nc1 [Example 90, 4-(5-ethoxypyridin-2-yl)-N-(6-methylpyridin-2-yl)thiazol-2-amine] | < 200 |
| CCOc1ccc(-c2csc(Nc3cc(C)ccn3)n2)nc1 [Example 91, 4-(5-ethoxypyridin-2-yl)-N-(4-methylpyridin-2-yl)thiazol-2-amine] | < 200 |

| Compound | IC50 [nM] |
| --- | --- |
| Cc1ccnc(Nc2nc(-c3ncccc3C#N)cs2)c1 [Example 92, 2-(2-(4-methylpyridin-2-ylamino)thiazol-4-yl)nicotinonitrile] | < 200 |
| CC(=O)N(C)c1cc(C(F)(F)F)cnc1Nc1nc(-c2ccc(OC(C)C)cn2)cs1 [Example 93, N-(2-(4-(5-isopropoxypyridin-2-yl)thiazol-2-ylamino)-5-(trifluoromethyl)pyridin-3-yl)-N-methylacetamide] | < 200 |
| Cc1cccnc1Nc1nc(-c2ccc(Cl)cn2)cs1 [Example 94, 4-(5-chloropyridin-2-yl)-N-(3-methylpyridin-2-yl)thiazol-2-amine] | < 200 |
| CCOc1ccc(-c2csc(Nc3ccc(C(F)(F)F)cn3)n2)nc1 [Example 95, 4-(5-ethoxypyridin-2-yl)-N-(5-(trifluoromethyl)pyridin-2-yl)thiazol-2-amine] | < 200 |
| COc1ccnc(-c2csc(Nc3ncc(C(F)(F)F)cc3N(C)C(C)=O)n2)c1 [Example 96, N-(2-(4-(4-methoxypyridin-2-yl)thiazol-2-ylamino)-5-(trifluoromethyl)pyridin-3-yl)-N-methylacetamide] | 200 to 500 |
| Cc1cc(C(F)(F)F)cnc1Nc1nc(-c2cc3c(cn2)N(C)CC3)cs1 [Example 97, 4-(1-methyl-2,3-dihydro-1H-pyrrolo[2,3-c]pyridin-5-yl)-N-(3-methyl-5-(trifluoromethyl)pyridin-2-yl)thiazol-2-amine] | < 200 |
| Cc1ccnc(Nc2nc(-c3cc(OC4CN(C)C4)ccn3)cs2)c1 [Example 98, 4-(4-(1-methylazetidin-3-yloxy)pyridin-2-yl)-N-(4-methylpyridin-2-yl)thiazol-2-amine] | < 200 |
| Cc1ccnc(-c2csc(Nc3ncccc3-c3ccccc3)n2)c1 [Example 99, 4-(4-methylpyridin-2-yl)-N-(3-phenylpyridin-2-yl)thiazol-2-amine] | 500 to 5000 |
| Cc1cccnc1-c1csc(Nc2cc(-c3ccccc3)ccn2)n1 [Example 100, 4-(3-methylpyridin-2-yl)-N-(4-phenylpyridin-2-yl)thiazol-2-amine] | < 200 |
| Cc1ccnc(Nc2nc(-c3cc(-c4ccccc4)ccn3)cs2)c1 [Example 101, N-(4-methylpyridin-2-yl)-4-(4-phenylpyridin-2-yl)thiazol-2-amine] | < 200 |
| Cc1ccnc(Nc2nc(-c3cc(OC4COC4)ccn3)cs2)c1 [Example 102, N-(4-methylpyridin-2-yl)-4-(4-(oxetan-3-yloxy)pyridin-2-yl)thiazol-2-amine] | < 200 |
| Cc1ccnc(Nc2nc(-c3ncccc3-c3ccccc3)cs2)c1 [Example 103, N-(4-methylpyridin-2-yl)-4-(3-phenylpyridin-2-yl)thiazol-2-amine] | < 200 |
| FC(F)(F)c1ccnc(Nc2nc(-c3ccc(OC4CCOCC4)cn3)cs2)c1 [Example 104, 4-(5-(tetrahydro-2H-pyran-4-yloxy)pyridin-2-yl)-N-(4-(trifluoromethyl)pyridin-2-yl)thiazol-2-amine] | < 200 |
| Cc1sc(Nc2cc(C(=O)NCC(F)(F)F)ccn2)nc1-c1ccc(OC2CCOCC2)cn1 [Example 106, 2-(5-methyl-4-(5-(tetrahydro-2H-pyran-4-yloxy)pyridin-2-yl)thiazol-2-ylamino)-N-(2,2,2-trifluoroethyl) isonicotinamide] | 200 to 500 |
| Cc1ccnc(Nc2nc(-c3ncccn3)cs2)c1 [Example 107, N-(4-methylpyridin-2-yl)-4-(pyrimidin-2-yl)thiazol-2-amine] | 500 to 5000 |
| CC(=O)N(C)c1cc(C(F)(F)F)cnc1Nc1nc(-c2cc3n(n2)CCC3)cs1 [Example 108, N-(2-(4-(5,6-dihydro-4H-pyrrolo[1,2-b]pyrazol-2-yl)thiazol-2-ylamino)-5-(trifluoromethyl)pyridin-3-yl)-N-methylacetamide] | < 200 |
| Fc1ccc(-c2csc(Nc3cc(C(F)(F)F)c(Br)cn3)n2)nc1 [Example 109, N-(5-bromo-4-(trifluoromethyl)pyridin-2-yl)-4-(5-fluoropyridin-2-yl)thiazol-2-amine] | 200 to 500 |
| Cc1ccnc(Nc2nc(-c3ncccc3C)c(-c3ccccc3)s2)c1 [Example 110, 4-(3-methylpyridin-2-yl)-N-(4-methylpyridin-2-yl)-5-phenylthiazol-2-amine] | 500 to 5000 |
| Cc1cccnc1Nc1cnc(-c2ccc(OC3CCOCC3)cn2)s1 [Example 111, N-(3-methylpyridin-2-yl)-2-(5-(tetrahydro-2H-pyran-4-yloxy)pyridin-2-yl)thiazol-5-amine] | < 200 |
| c1ccc(-c2ccnc(Nc3cnc(-c4ccccn4)s3)c2)cc1 [Example 112, N-(4-phenylpyridin-2-yl)-2-(pyridin-2-yl)thiazol-5-amine] | 200 to 500 |
| COc1ccc(-c2ncc(Nc3cc(OC(C)C)ccn3)s2)nc1 [Example 113, N-(4-isopropoxypyridin-2-yl)-2-(5-methoxypyridin-2-yl)thiazol-5-amine] | 500 to 5000 |
| Cc1ccnc(Nc2cnc(-c3ncccc3C)s2)c1 [Example 114, 2-(3-methylpyridin-2-yl)-N-(4-methylpyridin-2-yl)thiazol-5-amine] | < 200 |
| Cc1ccnc(Nc2csc(-c3ncccc3C)n2)c1 [Example 115, 2-(3-methylpyridin-2-yl)-N-(4-methylpyridin-2-yl)thiazol-4-amine] | 500 to 5000 |
